Measured values taken from US20230053540A1, “TREATMENT OF LIVER INJURY” (Massachusetts Institute of Technology, priority 2019, published 2023).

Test system: hepatocytes
Experiment: Seq-Well scRNA-Seq of hepatocytes after APAP overdose (signature scores, DEG vs untreated)
Type: in vivo, mouse
Details: cluster A6 (APAP 6 hr)

## CC(=O)Nc1ccc(O)cc1 [APAP, acetaminophen]
  Iigp1 pct.1: 0.78
  Il1b avg_logFC: 0.7365
  Il1b pct.1: 0.236
  Il1r1 avg_logFC: 0.845
  Il1r1 pct.1: 0.683
  Insig2 avg_logFC: 0.6834
  Insig2 pct.1: 0.854
  Iqgap1 avg_logFC: 0.4345
  Iqgap1 pct.1: 0.162
  Itgb2 avg_logFC: 0.2628
  Itgb2 pct.1: 0.105
  Itih2 avg_logFC: 0.3109
  Itih2 pct.1: 0.893
  Jak1 avg_logFC: 0.4696
  Jak1 pct.1: 0.554
  Jmjd1c avg_logFC: 0.5262
  Jmjd1c pct.1: 0.47
  Klf6 avg_logFC: 0.6123
  Klf6 pct.1: 0.382
  Krt8 avg_logFC: 1.204
  Krt8 pct.1: 0.826
  Krt18 avg_logFC: 1.118
  Krt18 pct.1: 0.864
  Laptm5 avg_logFC: 0.3169
  Laptm5 pct.1: 0.124
  Lars2 avg_logFC: 0.5887
  Lars2 pct.1: 1
  Lgmn avg_logFC: 0.4368
  Lgmn pct.1: 0.246
  Lmo4 avg_logFC: 0.2923
  Lmo4 pct.1: 0.308
  Lpin2 avg_logFC: 0.5227
  Lpin2 pct.1: 0.745
  Lrrc58 avg_logFC: 0.9243
  Lrrc58 pct.1: 0.711
  Lyst avg_logFC: 0.3767
  Lyst pct.1: 0.31
  Lyz2 avg_logFC: 0.6523
  Lyz2 pct.1: 0.234
  Maff avg_logFC: 0.3314
  Maff pct.1: 0.224
  Malat1 avg_logFC: 1.108
  Malat1 pct.1: 0.871
  Map2k3 avg_logFC: 0.3952
  Map2k3 pct.1: 0.427
  Mat1a avg_logFC: 0.3317
  Mat1a pct.1: 0.986
  Mat2a avg_logFC: 0.4693
  Mat2a pct.1: 0.487
  Mdn1 avg_logFC: 0.2931
  Mdn1 pct.1: 0.251
  Mfsd2a avg_logFC: 0.4232
  Mfsd2a pct.1: 0.465
  Mmp8 avg_logFC: 0.3585
  Mmp8 pct.1: 0.136
  Mmp14 avg_logFC: 0.2594
  Mmp14 pct.1: 0.253
  Mrap avg_logFC: 0.8261
  Mrap pct.1: 0.606
  Mrc1 avg_logFC: 0.3063
  Mrc1 pct.1: 0.131
  Msn avg_logFC: 0.251
  Msn pct.1: 0.105
  Mt1 avg_logFC: 0.9315
  Mt1 pct.1: 0.981
  Mt2 avg_logFC: 0.6647
  Mt2 pct.1: 0.938
  Mthfd2 avg_logFC: 0.26
  Mthfd2 pct.1: 0.205
  Myh9 avg_logFC: 0.8661
  Myh9 pct.1: 0.718
  Myl12a avg_logFC: 0.3937
  Myl12a pct.1: 0.461
  Myo1e avg_logFC: 0.4916
  Myo1e pct.1: 0.475
  Ncl avg_logFC: 0.4292
  Ncl pct.1: 0.69
  Neat1 avg_logFC: 0.6234
  Neat1 pct.1: 0.31
  Nid1 avg_logFC: 0.3315
  Nid1 pct.1: 0.229
  Nolc1 avg_logFC: 0.4084
  Nolc1 pct.1: 0.363
  Nop56 avg_logFC: 0.2507
  Nop56 pct.1: 0.282
  Nop58 avg_logFC: 0.5859
  Nop58 pct.1: 0.492
  Phc2 avg_logFC: 0.3092
  Phc2 pct.1: 0.284
  Picalm avg_logFC: 0.6425
  Picalm pct.1: 0.647
  Pigr avg_logFC: 0.2627
  Pigr pct.1: 0.947
  Pla2g7 avg_logFC: 0.2737
  Pla2g7 pct.1: 0.119
  Plek avg_logFC: 0.3031
  Plek pct.1: 0.11
  Plin2 avg_logFC: 1.276
  Plin2 pct.1: 0.943
  Plscr1 avg_logFC: 0.4343
  Plscr1 pct.1: 0.329
  Ppan avg_logFC: 0.2655
  Ppan pct.1: 0.255
  Ppl avg_logFC: 0.8287
  Ppl pct.1: 0.47
  Psat1 avg_logFC: 0.3001
  Psat1 pct.1: 0.229
  Ptprc avg_logFC: 0.4072
  Ptprc pct.1: 0.153
  Rad54l2 avg_logFC: 0.3366
  Rad54l2 pct.1: 0.325
  Ranbp2 avg_logFC: 0.4808
  Ranbp2 pct.1: 0.566
  Rcan1 avg_logFC: 0.5727
  Rcan1 pct.1: 0.425
  Rell1 avg_logFC: 0.577
  Rell1 pct.1: 0.375
  Retnlg avg_logFC: 0.3746
  Retnlg pct.1: 0.129
  Retsat avg_logFC: 0.4801
  Retsat pct.1: 0.845
  Rgs2 avg_logFC: 0.3802
  Rgs2 pct.1: 0.138
  Rnf144a avg_logFC: 0.3119
  Rnf144a pct.1: 0.177
  Rock2 avg_logFC: 0.5525
  Rock2 pct.1: 0.425
  Rora avg_logFC: 0.5514
  Rora pct.1: 0.549
  S100a8 avg_logFC: 1.116
  S100a8 pct.1: 0.353
  S100a9 avg_logFC: 1.336
  S100a9 pct.1: 0.399
  Sat1 avg_logFC: 0.6622
  Sat1 pct.1: 0.47
  Sdad1 avg_logFC: 0.2844
  Sdad1 pct.1: 0.289
  Sdc3 avg_logFC: 0.318
  Sdc3 pct.1: 0.103
  Sdc4 avg_logFC: 0.4415
  Sdc4 pct.1: 0.909
  Serpina3m avg_logFC: 0.6067
  Serpina3m pct.1: 0.85
  Slc16a6 avg_logFC: 0.864
  Slc16a6 pct.1: 0.47
  Slc39a14 avg_logFC: 0.6721
  Slc39a14 pct.1: 0.678
  Son avg_logFC: 0.4342
  Son pct.1: 0.601
  Spred1 avg_logFC: 0.3351
  Spred1 pct.1: 0.308
  Sqstm1 avg_logFC: 0.6817
  Sqstm1 pct.1: 0.859
  Srgn avg_logFC: 0.926
  Srgn pct.1: 0.284
  Srxn1 avg_logFC: 1.874
  Srxn1 pct.1: 0.821
  St3gal1 avg_logFC: 0.4344
  St3gal1 pct.1: 0.473
  Stat3 avg_logFC: 0.4846
  Stat3 pct.1: 0.604
  Stk17b avg_logFC: 0.2825
  Stk17b pct.1: 0.126
  Stk40 avg_logFC: 0.4875
  Stk40 pct.1: 0.382
  Tars avg_logFC: 0.4768
  Tars pct.1: 0.666
  Tatdn2 avg_logFC: 0.309
  Tatdn2 pct.1: 0.334
  Tbc1d15 avg_logFC: 0.42
  Tbc1d15 pct.1: 0.461
  Tcerg1 avg_logFC: 0.3358
  Tcerg1 pct.1: 0.305
  Tiparp avg_logFC: 0.427
  Tiparp pct.1: 0.346
  Tjp2 avg_logFC: 0.403
  Tjp2 pct.1: 0.332
  Tmem87b avg_logFC: 0.3486
  Tmem87b pct.1: 0.351
  Tmsb4x avg_logFC: 0.7051
  Tmsb4x pct.1: 0.332
  Tnfrsf1a avg_logFC: 0.4533
  Tnfrsf1a pct.1: 0.508
  Tnfrsf12a avg_logFC: 1.081
  Tnfrsf12a pct.1: 0.623
  Tra2a avg_logFC: 0.6917
  Tra2a pct.1: 0.337
  Trp53inp1 avg_logFC: 0.8389
  Trp53inp1 pct.1: 0.637
  Tsc22d2 avg_logFC: 0.3382
  Tsc22d2 pct.1: 0.353
  Tsku avg_logFC: 0.3206
  Tsku pct.1: 0.327
  Tsr1 avg_logFC: 0.314
  Tsr1 pct.1: 0.341
  Tubb2a avg_logFC: 0.7838
  Tubb2a pct.1: 0.618
  Tubb6 avg_logFC: 0.533
  Tubb6 pct.1: 0.368
  Txnrd1 pct.1: 0.838
  Tyrobp avg_logFC: 0.4431
  Tyrobp pct.1: 0.189
